Assay results taken from PMC6024615, “Effect of Biliary Drainage on the Toxicity and Toxicokinetics of Amanita exitialis in Beagles” (Toxins, 2018).
Like-named read-outs stand apart in the source and are kept apart here.

What was measured:
[1] = cited from earlier work
Method: The difference in detectable time in the urine can be explained by the low level of internal exposure (amatoxins in the blood). […] The daily amounts of peptide toxins excreted in urine in beagles without biliary drainage(mg). Time after α-Amanitin β-Amanitin Phallacidin ingestion 20 mg/kg 60 mg/kg 20 mg/kg 60 mg/kg 20 mg/kg 60 mg/kg group group group group group group 0-1d 0.0379 0.0593 0.0156 0.0251 0.0035 0.0088 (97.9%) (92.8%) (99.9%) (94.7%) (94.2%) (76%) 1-2d 0.0388 0.0618 0.01567 0.0255 0.0037 0.0110 (99.995%) (97.5%) (100%) (96.2%) (100%) (93%) 2-3d 0.0002 0.0626 0 0.0260 0 0.0115 (100%) (99.4%) (100%) (98.2%) (100%) (97.3%) 3-4d 0 0.063 ...

[2] = Peptide toxins in the bile of beagles with biliary drainage; assay type: in vivo, beagle dogs; conditions: for Accumulated amounts excreted in bile / percentage of total bile excretion, Accumulated amounts: 0–4 days; for ratio of peptide toxins in bile to excretion in urine and bile: mean ± SD
Method: The study was approved by National Institute of Occupational Health and Poison Control review board for animal experiments. Twenty-four male beagles (age, 8–10 months; weight, 10 ± 1 kg) were obtained from Beijing Institute of Xieerxin Biology Resource (Beijing, China). They were randomly divided into four groups of six animals each: control, biliary drainage, and 20 and 60 mg/kg with biliary drainage groups. The biliary drainage operation was conducted in all groups barring the control group. The dogs were dressed in homemade underwear, coats, and Elizabeth circles for a week to ensure pre-experimental acclimatization (Figure S8a–c). After determining the baseline values for biochemical indicators, the dogs were fasted for 24 h but received water ad libitum. They were anesthetized by intravenous administration of pentobarbital sodium (3%, 1 mL/kg) during the surgery. A temperature of 38–39 °C was maintained with a warming mat. After skin preservation and sterilization, the abdominal cavity was opened through the central abdomen. The abdomen was explored and blunt dissection of the common bile duct was performed (Figure S8d). The common bile duct and its branches were ligated from the intestinal side. A 7.0-Fr drainage catheter (COOK, Bloomington, IN, USA) was percutaneously inserted into the gallbladder, and a medical drainage bag was connected to the drainage catheter coming out of the abdominal cavity. Each opened layer, including the peritoneum, abdominal wall muscle, and skin, was closed with suture. The operative incision was protected with sterile gauze and a bandage, and the dogs were dressed in homemade underwear, coats, and Elizabeth circles. The drainage bag was placed in the pocket of the coat (Figure S8e). After the anesthetic wore off, the dogs were placed in cages, and food and water were provided ad libitum. The operative incision was sterilized with iodophor twice a day until stitches were removed six days after surgery. The drainage bag was replaced every day. On the eighth day after surgery, the 20 and 60 mg/kg with biliary drainage groups were orally administered a lyophilized powder of Amanita exitialis in starch capsules. In control and bile drainage group, the beagle dogs were fed with empty capsules. Immediately after dosing, the animals were placed in their cages, and food and water were provided ad libitum. Dogs were sacrificed with an overdose of sodium pentobarbital at the end of the experiment. All procedures were performed according to the ethical standards of the National Institutes of Health Guide for Animal Welfare and approved by the Institutional Animal Care and Use Committee (EAWE-2017-005).
Peptide toxins in blood and urine samples were analyzed as described previously. Bile samples from Days 0–1, Days 1–2, Days 2–3, and Days 3–4 were collected and stored in medical drainage bags and the bile volume was recorded. Plasma and urine samples were stored at 2–8 °C until analysis for peptide toxins.
α-Amanitin, β-amanitin, γ-amanitin, and phallacidin were used as the standard reference materials. Aliquots (0.2 mL) of bile samples were transferred into 2-mL polypropylene centrifuge tubes in duplicates. Next, 1 mL of acetonitrile was added to each tube. After vortex-mixing for 1 min, each sample was sonicated for 30 min and centrifuged at 11,200× g for 10 min at 4 °C. The supernatants were loaded on solid-phase extraction columns (Oasis PRiME HLB, 60 mg, 3 cc). The columns were then washed with 3 mL of methanol/ultrapure water (v/v: 5/95). The eluent was evaporated in a stream of nitrogen at room temperature. The dry residue was dissolved in 0.2 mL of ultrapure water and analyzed by UPLC-ESI-MS/MS.
UPLC and MS/MS parameters were as described in our previous study. The limit of detection and limit of quantitation of each toxin in the bile were 0.03 mg/kg and 0.5 mg/kg, respectively.

[3] = 0–1 days, 20 mg/kg with biliary drainage group
[4] = 0–1 days, 60 mg/kg with biliary drainage group
[5] = 20 mg/kg with biliary drainage group
[6] = 60 mg/kg with biliary drainage group
[7] = 1-2 d, 20 mg/kg with biliary drainage group
[8] = 1-2 d, 60 mg/kg with biliary drainage group
[9] = 1–2 days, 20 mg/kg with biliary drainage group
[10] = 1–2 days, 60 mg/kg with biliary drainage group
[11] = 2-3 d, 20 mg/kg with biliary drainage group
[12] = 2-3 d, 60 mg/kg with biliary drainage group
[13] = 2–3 days, 20 mg/kg with biliary drainage group
[14] = 2–3 days, 60 mg/kg with biliary drainage group
[15] = 3-4d, 20 mg/kg with biliary drainage group
[16] = 3-4d, 60 mg/kg with biliary drainage group
[17] = 3–4 days, 20 mg/kg with biliary drainage group
[18] = 3–4 days, 60 mg/kg with biliary drainage group

SMILES: CC[C@H](C)[C@@H]1NC(=O)CNC(=O)[C@@H]2Cc3c([nH]c4cc(O)ccc34)[S@+]([O-])C[C@H](NC(=O)CNC1=O)C(=O)N[C@@H](CC(=O)O)C(=O)N1C[C@H](O)C[C@H]1C(=O)N[C@@H]([C@@H](C)[C@@H](O)CO)C(=O)N2 [β-amanitin]
- daily amount excreted in urine, without biliary drainage ([1]; 0-1d, 20 mg/kg group): 0.0156 mg
- percentage in parentheses, urine, without biliary drainage ([1]; 0-1d, 20 mg/kg group): 99.9%
- daily amount excreted in urine, without biliary drainage ([1]; 0-1d, 60 mg/kg group): 0.0251 mg
- percentage in parentheses, urine, without biliary drainage ([1]; 0-1d, 60 mg/kg group): 94.7%
- Accumulative amount excreted in urine, without biliary drainage ([1]; 20 mg/kg group): 0.0157 mg
- percentage in parentheses, Accumulative amount, urine, without biliary drainage ([1]; 20 mg/kg group): 100%
- Accumulative amount excreted in urine, without biliary drainage ([1]; 20 mg/kg group, listed as β-Amanitin): 0.01567 mg
- percentage in parentheses, Accumulative amount, urine, without biliary drainage ([1]; 60 mg/kg group): 100%
- percentage in parentheses, urine, without biliary drainage ([1]; 1-2d, 20 mg/kg group): 100%
- daily amount excreted in urine, without biliary drainage ([1]; 1-2d, 60 mg/kg group): 0.0255 mg
- percentage in parentheses, urine, without biliary drainage ([1]; 1-2d, 60 mg/kg group): 96.2%
- daily amount excreted in urine, without biliary drainage ([1]; 2-3d, 20 mg/kg group): 0 mg
- percentage in parentheses, urine, without biliary drainage ([1]; 2-3d, 20 mg/kg group): 100%
- daily amount excreted in urine, without biliary drainage ([1]; 2-3d, 60 mg/kg group): 0.0260 mg
- percentage in parentheses, urine, without biliary drainage ([1]; 2-3d, 60 mg/kg group): 98.2%
- daily amount excreted in urine, without biliary drainage ([1]; 3-4d, 20 mg/kg group): 0 mg
- percentage in parentheses, urine, without biliary drainage ([1]; 3-4d, 20 mg/kg group): 100%
- daily amount excreted in urine, without biliary drainage ([1]; 3-4d, 60 mg/kg group): 0.0264 mg
- percentage in parentheses, urine, without biliary drainage ([1]; 3-4d, 60 mg/kg group): 100%
- detection rate of peptide toxins in bile ([2]; 0-1 d, 20 mg/kg with biliary drainage group): 50%
- detection rate of peptide toxins in bile ([2]; 0-1 d, 60 mg/kg with biliary drainage group): 83%
- daily amount excreted in bile [2, 3]: 0.00014 mg
- percentage of total bile excretion excreted daily [2, 3]: 100%
- daily amount excreted in bile [2, 4]: 0.00122 mg
- percentage of total bile excretion excreted daily [2, 4]: 100%
- Accumulated amounts excreted in bile [2, 5]: 0.00014 mg
- percentage of total bile excretion, Accumulated amounts [2, 5]: 100%
- percentage of total bile excretion, Accumulated amounts [2, 6]: 100%
- Accumulated amounts excreted in bile ([2]; 60 mg/kg with biliary drainage group, 60 mg/kg): 0.0012 mg
- Accumulated amounts excreted in bile ([2]; 60 mg/kg with biliary drainage group, listed as β-Amanitin, 60 mg/kg): 0.00122 mg
- ratio of peptide toxins in bile to excretion in urine and bile [2, 5]: less than 10%
- ratio of peptide toxins in bile to excretion in urine and bile ([2]; 20 mg/kg with biliary drainage group, listed as β-Amanitin): 5.7 ± 8.5%
- ratio of peptide toxins in bile to excretion in urine and bile [2, 6]: less than 20%
- ratio of peptide toxins in bile to excretion in urine and bile ([2]; 60 mg/kg with biliary drainage group, listed as β-Amanitin): 15.4 ± 10.6%
- detection rate of peptide toxins in bile [2, 7]: 0%
- toxin concentration in bile [2, 7]: 0 µg/L
- detection rate of peptide toxins in bile [2, 8]: 0%
- toxin concentration in bile [2, 8]: 0 µg/L
- daily amount excreted in bile [2, 9]: 0(0%) mg
- percentage of total bile excretion excreted daily [2, 9]: 0(0%)
- daily amount excreted in bile [2, 10]: 0(0%) mg
- percentage of total bile excretion excreted daily [2, 10]: 0(0%)
- detection rate of peptide toxins in bile [2, 11]: 0%
- toxin concentration in bile [2, 11]: 0 µg/L
- detection rate of peptide toxins in bile [2, 12]: 0%
- toxin concentration in bile [2, 12]: 0 µg/L
- daily amount excreted in bile [2, 13]: 0(0%) mg
- percentage of total bile excretion excreted daily [2, 13]: 0(0%)
- daily amount excreted in bile [2, 14]: 0(0%) mg
- percentage of total bile excretion excreted daily [2, 14]: 0(0%)
- detection rate of peptide toxins in bile [2, 15]: 0%
- toxin concentration in bile [2, 15]: 0 µg/L
- detection rate of peptide toxins in bile [2, 16]: 0%
- toxin concentration in bile [2, 16]: 0 µg/L
- daily amount excreted in bile [2, 17]: 0(0%) mg
- percentage of total bile excretion excreted daily [2, 17]: 0(0%)
- daily amount excreted in bile [2, 18]: 0(0%) mg
- percentage of total bile excretion excreted daily [2, 18]: 0(0%)
